The test system of this data set is Sprague_Dawley/Crl:CD (SD)IGS BR rats. The data set can be described thus: Liver histopathology of treated rats. Format: in vivo, rat. To be noted: 1400 mg/kg oral gavage, 24 hours. The procedure:
Four control rats were administered a quantity of methylcellulose vehicle (no acetaminophen) having a volume approximately equal to that received by treated rats. After 24 hours, all rats were euthanized and livers were collected by necropsy. At necropsy, blood samples were collected via the vena cava (approximately 0.5 ml) in microtainer tubes. All livers were then fixed in 10% neutral buffered formalin and processed for histopathology by trimming trimmed, dehydrating, embedding in paraffin, sectioning, mounting on glass slides, and staining with hematoxylin and eosin stains.
Microscopically, there was a moderate centrilobular degeneration which was multifocal in two of the animals and was characterized by hepatocellular degeneration and necrosis, edema fluid, hemorrhages, and infiltration of mononuclear cells and occasional neutrophils in the other two animals. The severity and distribution of the microscopic lesions correlated well with the measured increases in ALT, AST, 5′NT, and albumin RT-PCR.

Data on one compound can be found in patent US7968291B2, “RNA bioassay” (The Hamner Institute for Health Sciences, priority 2002, dated 2011).

Entries after “also recorded” stand apart in the source; their conditions may differ.

Regarding `CC(=O)Nc1ccc(O)cc1` [acetaminophen], the “Histopathological analysis of liver” value (four rats) was “moderate levels of damage”. Further, the “Hepatocellular Degeneration” value (individual rats (animals 1-4)) is “Diffuse; also recorded: Multifocal”.
